For orientation: GI50 means the concentration that inhibits growth by half.

From ChEMBL document CHEMBL1201862, “PubChem BioAssay data set” (2004) come the findings set out here.

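Interpolation was linear, between the two tested concentrations surrounding the appropriate level; five concentrations were tested over 48 hours in 96-well plates. GI50 is the concentration that inhibits growth by half.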 Activity calls are given as the source filed them. No stated cut-off is given here; in the data, active = GI50 up to about 1.1 µM and inactive = higher.

Common to all, as to assay: DTP human tumour cell line panel, 48 h
In experiment [1] the test system is K562.
Experiment [2] relates to SW-620.
The subject of experiment [3] is IGROV-1.
The subject of experiment [4] is NCI-H460.
Experiment [5] deals with HOP-92.
The test system of experiment [6] is TK-10.
Experiment [7] concerns MDA-N.
For experiment [8], the system named is SR.
The test system of experiment [9] is OVCAR-8.
Experiment [10] deals with CAKI-1.
The subject of experiment [11] is HCT-116.
The test system of experiment [12] is SNB-19.
In experiment [13] the test system is UACC-62.
The test system of experiment [14] is HT-29.
The test system of experiment [15] is MDA-MB-231.
For experiment [16], the system named is HCC 2998.
Experiment [17] concerns UO-31.
The subject of experiment [18] is RPMI-8226.
Experiment [19] has as its system Hs-578T.

Turning to `O=C(O)c1cccc(/[As]=[As]\c2cccc(C(=O)O)c2)c1` (stereo not given), the GI50 is 34.7 µM (inactive) in [1]; 32.7 µM (inactive) in [2]; 34.2 µM (inactive) in experiment [3]; 36 µM (inactive) in experiment [4]; 18.7 µM (inactive) in [5]; 23.2 µM (inactive) in experiment [6]. Further, the GI50 was 61.1 µM (inactive) in [7]; 28.7 µM (inactive) in experiment [8]; 34.6 µM (inactive) in [9]; 16.4 µM (inactive) in [10]; 36.9 µM (inactive) in [11]; 32.2 µM (inactive) in experiment [12]. The GI50 in experiment [13] is 33.3 µM (inactive); in experiment [14], 49.3 µM (inactive); in experiment [15], 21.6 µM (inactive); in experiment [16], 57.7 µM (inactive); in experiment [17], 38.2 µM (inactive); in experiment [18], 23 µM (inactive). The GI50 in [19] was 33.8 µM (inactive).
With `CC(C)C(Cl)CCC(C)(Cl)C(=O)CBr` (stereo not given), the GI50 in experiment [1] is 1.02 µM (active); in [2] it was 2 µM (inactive); in [3], 6.67 µM (inactive); in [4], 16.1 µM (inactive); in experiment [5], 10 µM (inactive); in experiment [6], 5.83 µM (inactive). Further, the GI50 in experiment [7] was 1.95 µM (inactive); in experiment [8] it was 0.845 µM (active); in [9] it was 3.37 µM (inactive); in experiment [10], 6.1 µM (inactive); in experiment [11], 3.03 µM (inactive); in experiment [12] it was 29.6 µM (inactive). Further, the GI50 in [13] was 2.77 µM (inactive); in experiment [14] it was 4.36 µM (inactive); in experiment [15], 5.37 µM (inactive); in experiment [16], 18.5 µM (inactive); in [17] it was 5.98 µM (inactive); in experiment [18], 0.634 µM (active). Moreover, the GI50 in [19] was 5.73 µM (inactive).
As to `COc1cc(C(N)=O)cc(NC(=O)/C=C/c2ccccc2)c1OC`, the GI50 is > 100 µM (inactive) in [1]; > 100 µM (inactive) in experiment [2]; > 100 µM (inactive) in experiment [3]; > 100 µM (inactive) in experiment [4]; 35.7 µM (inactive) in experiment [5]; > 100 µM (inactive) in [6]. Moreover, the GI50 is > 100 µM (inactive) in experiment [7]; 74.8 µM (inactive) in experiment [8]; 61.8 µM (inactive) in experiment [9]; > 100 µM (inactive) in experiment [10]; > 100 µM (inactive) in experiment [11]; 27.7 µM (inactive) in [12]. Also, the GI50 in [13], in experiment [14], in [15], in experiment [16], in [17] and in experiment [18] was > 100 µM (inactive) each time. For the same compound, the GI50 in [19] was > 100 µM (inactive).
Consider `CC(=O)NC1=C(C)C(=O)c2c(nc3n2CCC3OC(=O)c2ccccc2)C1=N` (stereo not given), for which the GI50 in experiment [1] is 1.79 µM (inactive); in [2] it was 1.63 µM (inactive); in experiment [3], 1.74 µM (inactive); in experiment [4] it was 1.99 µM (inactive); in experiment [5], 2.15 µM (inactive); in [6] it was 3.5 µM (inactive). Besides, the 50% growth inhibitory concentration (GI50) in experiment [7] is 0.182 µM (active); in experiment [8], 2.29 µM (inactive); in experiment [9], 1.04 µM (active); in [10], 1.84 µM (inactive); in experiment [11], 3.15 µM (inactive); in [12], 3.48 µM (inactive). The GI50 in [13] is 0.314 µM (active); in experiment [14] it was 0.973 µM (active); in experiment [15] it was 2.07 µM (inactive); in [16] it was 2.06 µM (inactive); in experiment [17], 2.04 µM (inactive); in experiment [18], 1.31 µM (inactive). In [19], the GI50 is 2.06 µM (inactive).
Turning to `CCOc1ccc(/N=N/c2ccc3cc(/C(C)=N/NC(=O)/C(C#N)=C\c4ccc(N(CCC#N)CCC#N)cc4)c(=O)oc3c2)cc1`, the GI50 in experiment [1], in experiment [2], in experiment [3], in [4], in experiment [5] and in experiment [6] was > 10 µM (inactive) throughout. The GI50 in experiment [7], in experiment [8], in experiment [9], in experiment [10], in experiment [11] and in [12] was > 10 µM (inactive) in each case. Further, the GI50 in [13], in experiment [14], in experiment [15], in experiment [16], in [17] and in experiment [18] was > 10 µM (inactive) each time. In addition, the GI50 in experiment [19] was > 10 µM (inactive).
For `COC(=O)c1c2c(cc3c1CC1(C3)Cc3ccc4c(c3C1=O)CCC4)CCC2` (stereo not given), the GI50 in [1] was 2.2 µM (inactive); in experiment [2] it was 4.07 µM (inactive); in [3], 4.99 µM (inactive); in experiment [4] it was 4.84 µM (inactive); in experiment [5], 1.84 µM (inactive); in experiment [6], 8.49 µM (inactive). The GI50 was 0.608 µM (active) in experiment [7]; 1.78 µM (inactive) in [8]; 4.61 µM (inactive) in experiment [9]; 2.26 µM (inactive) in experiment [10]; 3.01 µM (inactive) in experiment [11]; 4.12 µM (inactive) in experiment [12]. Further, the GI50 was 2.26 µM (inactive) in experiment [13]; 2.58 µM (inactive) in experiment [14]; 2.01 µM (inactive) in experiment [15]; 6.52 µM (inactive) in experiment [16]; 3.05 µM (inactive) in experiment [17]; 3.23 µM (inactive) in experiment [18]. The GI50 in [19] is 1.91 µM (inactive).
On to `CNC(=O)CNC(=O)C(Cc1ccc(NC(=O)CCCCC(C)=O)cc1)NC(=O)C(CCC(=O)OCc1ccccc1)NC(=O)OC(C)(C)C` (stereo not given), for which the GI50 in [1], in experiment [2], in [3], in [4], in [5] and in experiment [6] was > 100 µM (inactive) in each case. Moreover, the GI50 in experiment [7], in experiment [8], in [9], in experiment [10], in experiment [11] and in experiment [12] was > 100 µM (inactive) throughout. In addition, the GI50 in experiment [13], in experiment [14], in experiment [15], in experiment [16], in [17] and in experiment [18] was > 100 µM (inactive) throughout. Further, in experiment [19], the GI50 is > 100 µM (inactive).
Consider `C=C1C2CCC3(CCC4C5(C)CCCC4(C=[N+](CCO)C5)C3C2)C1O` (stereo not given), for which the GI50 in [1] was > 10 µM (inactive); in [2] it was > 100 µM (inactive); in [3], > 100 µM (inactive); in experiment [4], > 100 µM (inactive); in experiment [5] it was > 100 µM (inactive); in experiment [6], > 100 µM (inactive). Besides, the GI50 in experiment [7], in [8], in experiment [9], in experiment [10], in experiment [11] and in experiment [12] was > 100 µM (inactive) in each case. Further, the GI50 in experiment [13], in experiment [14], in [15], in [16], in experiment [17] and in [18] was > 100 µM (inactive) each time. For the same compound, the GI50 in experiment [19] was > 100 µM (inactive).
As for `Cc1ccc(C2=Nc3cc(C)c(Cl)cc3S(=O)(=O)NN2)cc1`, the GI50 in [1] is 36.3 µM (inactive); in experiment [2], > 100 µM (inactive); in experiment [3] it was > 100 µM (inactive); in experiment [4], > 100 µM (inactive); in experiment [5], > 100 µM (inactive); in experiment [6] it was 49.5 µM (inactive). Besides, the GI50 in experiment [7] is > 100 µM (inactive); in experiment [8], 20 µM (inactive); in experiment [9] it was > 100 µM (inactive); in experiment [10], 27.9 µM (inactive); in [11], > 100 µM (inactive); in experiment [12], 44.6 µM (inactive). Also, the GI50 was 56.9 µM (inactive) in experiment [13]; > 100 µM (inactive) in [14]; 23.3 µM (inactive) in experiment [15]; > 100 µM (inactive) in [16]; > 100 µM (inactive) in [17]; > 100 µM (inactive) in experiment [18]. The GI50 in experiment [19] was > 100 µM (inactive).
As to `O=C1Nc2ccccc2/C1=N/NS(=O)(=O)c1ccc(C(=O)O)cc1`, the GI50 in experiment [1], in [2], in experiment [3], in experiment [4], in experiment [5] and in experiment [6] was > 100 µM (inactive) throughout. Further, the GI50 in experiment [7], in experiment [8], in experiment [9], in [10], in experiment [11] and in experiment [12] was > 100 µM (inactive) throughout. Also, the GI50 in experiment [13], in [14], in experiment [15], in experiment [16], in experiment [17] and in experiment [18] was > 100 µM (inactive) throughout. Further, the GI50 in [19] is > 100 µM (inactive).
